Drawing on PubChem BioAssay (NCI), this text covers TGI and GI50 for 16 molecules.

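Briefly, cells in 96-well plates were exposed to five compound concentrations for 48 h, and endpoints were estimated by linear interpolation. Here, GI50 denotes the concentration required for 50% inhibition of growth. At the TGI there is no net growth.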

Common to all, as to experiment: NCI-60 cell line screen, 48 h
In experiment [1] the test system is PC-3 prostate.
In experiment [2] the test system is SK-MEL-2 melanoma.
For experiment [3], the system named is BT-549 breast.
Experiment [4] deals with ACHN renal.
Experiment [5] relates to OVCAR-5 ovarian.
Experiment [6] relates to HS 578T breast.
The subject of experiment [7] is HOP-92 NSCLC.
Experiment [8] has as its system A549 NSCLC.
Experiment [9] relates to SNB-19 CNS.

On to `CCOC(=O)C1=CN(C(=O)c2ccccc2)CCC1Cc1ccccc1` (stereo not drawn), for which the TGI was 78.1 µM in [1]; 35.9 µM in experiment [2]; 85.9 µM in experiment [3]; 63.6 µM in experiment [4]; more than 100 µM in [5]; 92.8 µM in [6]. The results for the TGI in experiment [7], in experiment [8] and in experiment [9] were 54.5 µM, more than 100 µM and more than 100 µM, respectively.
As to `Cc1nn(C(=O)c2ccc(Cl)cc2)c2c1C(c1ccco1)SC(N)=N2` (stereo not drawn), the TGI in experiment [1], in [2], in experiment [3], in experiment [4], in experiment [5] and in experiment [6] was more than 10 µM in each case. Also, the TGI in experiment [7], in experiment [8] and in experiment [9] was more than 10 µM throughout.
For the molecule `Cc1cnc2[nH]c(-c3cccc(Cl)c3)cc(=O)c2c1`, the TGI is more than 100 µM in [1]; 97.4 µM in experiment [2]; more than 100 µM in [3]; more than 100 µM in [4]; more than 100 µM in experiment [5]; 20.5 µM in experiment [6]. The TGI in experiment [7] is more than 100 µM; in experiment [8], more than 100 µM; in experiment [9], 41.3 µM.
`CCOC(=O)CCC(NC(=O)c1ccc(NCc2ccc3nc(-c4ccccc4)c(Cl)nc3c2)c2ccccc12)C(=O)OCC` (stereo not drawn): the TGI in [1], in experiment [2], in [3], in experiment [4], in experiment [5] and in [7] was more than 100 µM throughout. In addition, the TGI in experiment [8] and in experiment [9] was more than 100 µM throughout.
`Clc1ccc(-c2nn3c(C45CC6CC(CC(C6)C4)C5)nnc3s2)cc1`: the TGI in experiment [1], in experiment [2], in experiment [4], in experiment [5], in experiment [6] and in experiment [7] was more than 100 µM in each case. For the same molecule, the TGI in experiment [8] and in [9] was more than 100 µM in each case.
As to `O=C(NNCc1ccccc1O)c1ccccc1O`, the TGI in experiment [1] was more than 100 µM; in experiment [2], 25.8 µM; in experiment [4], more than 100 µM; in experiment [5], 96.3 µM; in [7], more than 100 µM; in [8], more than 100 µM. Besides, in experiment [9], the TGI is more than 100 µM.
Regarding `C=CCc1cccc2cc(C(=O)Nc3nc(C45CC6CC(CC(C6)C4)C5)cs3)c(=O)oc12`, the TGI in [1] was more than 100 µM; in experiment [3] it was more than 100 µM; in experiment [4], 33.9 µM; in experiment [5], more than 100 µM; in experiment [6], 47.9 µM; in experiment [7], 43.1 µM. Besides, the TGI was more than 100 µM in [8] and 64.2 µM in experiment [9].
For the molecule `C/C(=N\n1c(Cc2ccccc2)n[nH]c1=O)c1ccc([N+](=O)[O-])cc1`, the TGI in experiment [1], in experiment [2], in experiment [3], in experiment [5], in experiment [6] and in experiment [7] was more than 100 µM throughout. In addition, the TGI in [8] and in experiment [9] was more than 100 µM in each case.
Turning to `c1ccc2nn(C3CCCCO3)nc2c1` (stereo not drawn), the TGI in experiment [1], in [2], in experiment [3], in experiment [4], in experiment [5] and in experiment [6] was more than 100 µM each time. The TGI in [8] and in [9] was more than 100 µM each time.
`COC1=CCC2=C(CCN(C(=O)C3CCC3)C2Cc2ccc(OC)c(O)c2)C1` (stereo not drawn): the TGI in experiment [1] was more than 100 µM; in experiment [2], more than 100 µM; in experiment [4], more than 100 µM; in experiment [5], 92 µM; in experiment [6] it was 66.6 µM; in [7] it was 79.4 µM. Also, the TGI in [8] and in experiment [9] was more than 100 µM in each case.
For `C1=C[C@]2(CCC13OCCO3)COc1ccccc12`, the TGI in [1], in experiment [2], in experiment [4], in experiment [5], in [7] and in [8] was more than 100 µM in each case. Further, in experiment [9], the TGI was more than 100 µM.
For the molecule `CC(CC(C)(C)[N+](C)(C)C)[N+](C)(C)C` (stereo not drawn), the TGI in experiment [1], in [3], in [4], in experiment [5], in experiment [7] and in [8] was more than 100 µM each time. For the same molecule, the TGI in [9] was more than 100 µM.
In the case of `Cn1c(=O)c2[nH]c(-n3nc(-c4ccccc4)cc3N)nc2n(C)c1=O`, the TGI in experiment [1] was more than 100 µM; in experiment [2], 47.2 µM; in [3], more than 100 µM; in experiment [4], 37 µM; in experiment [5], more than 100 µM; in experiment [7] it was 74.9 µM. Also, in experiment [8], the TGI is more than 100 µM.
Regarding `c1csc(-c2nnc(C34CC5CC(CC(C5)C3)C4)o2)c1`, the TGI is more than 100 µM in [1]; 55.4 µM in [2]; more than 100 µM in experiment [4]; more than 100 µM in [5]; 74.6 µM in [6]; 54.8 µM in experiment [7]. For the same molecule, the TGI in [8] and in experiment [9] was more than 100 µM throughout.
Turning to `C=C(COC(=O)C(C)C)[C@H]1Oc2ccc(C(C)=O)cc2[C@@H]1OC(=O)C(C)C`, the TGI in experiment [1], in experiment [2], in experiment [3], in experiment [4], in experiment [5] and in experiment [6] was more than 100 µM in each case. The TGI in experiment [8] and in experiment [9] was more than 100 µM throughout.
On to `COc1ccc(/C=C/C(c2cc(OC)c(OC)c(OC)c2)n2cncn2)cc1O` (stereo not drawn), for which the GI50 in experiment [1] was 0.036 µM; in [2] it was 0.0438 µM; in experiment [3], 0.0712 µM; in experiment [4], 0.0578 µM; in experiment [5], 4.48 µM; in experiment [7], 67 µM. The GI50 in [8] is 4.56 µM. Also, the TGI in experiment [1] is more than 100 µM; in [2] it was more than 100 µM; in experiment [3], 37.1 µM; in experiment [4], more than 100 µM; in experiment [5], 72.6 µM; in [7], more than 100 µM. In experiment [8], this molecule returned a TGI of more than 100 µM.
